These results are taken from patent US8796256B2 (Janssen Pharmaceutica NV, priority 2010, dated 2014).

pEC50: −log10 of the molar value.

This test has as its target T1, ERR1 (also known as ERR-α or ERR-1) (Homo sapiens, UniProt P11474).
T1 sequence (P11474 193-421 limits assumed): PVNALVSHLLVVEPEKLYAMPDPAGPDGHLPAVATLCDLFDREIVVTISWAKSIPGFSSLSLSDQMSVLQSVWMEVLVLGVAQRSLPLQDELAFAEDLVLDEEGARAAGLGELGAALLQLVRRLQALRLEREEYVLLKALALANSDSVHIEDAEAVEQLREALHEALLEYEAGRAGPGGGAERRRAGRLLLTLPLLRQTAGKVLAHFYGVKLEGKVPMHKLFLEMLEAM
Briefly: TR-FRET assay (disruption of co-activator peptide binding to ERR1 LBD). The class given is biochemical. The note with it: 6 nM 6His-ERR1LBD, 6 nM GST-SRC-2 peptide; average of 3 independent experiments. The protocol:
Time-Resolved Fluorescence Resonance Energy Transfer (TR-FRET) experiments were performed to examine the functional response of ERR1 (also known as ERR-α or ERR-1) ligands. The TR-FRET assay described herein relied on the conformation of ERR1 for binding to a co-activator peptide: when a test compound binds to ERR1 and alters its conformation, it can disrupt the binding of the co-activator peptide. The components of this homogeneous secondary assay included: the ^6His-tagged-ERR1LBD, a GST-labeled-hSRC2 co-activator polypeptide and a fluorescent donor/acceptor pair from CIS bio international htrf/bioassays (Bedford, Mass.) using both an α-GST Europium (Eu) Cryptate label and an α^6His-XL665 (allophycocyanin) fluorophore.
For TR-FRET measurements, the reaction was buffered in 25 mM Tris pH 8, 2.5 mM Hepes, 20 mM KCl, 1 mM DTT, and 0.05 mg/mL BSA (delipidated). The final concentrations of reagents were 6 nM of ERR1LBD, 6 nM GST-SRC-2 peptide, 30 nM Eu cryptate, and 7.5 nM a^6His-XL665. Reactions were allowed to reach equilibrium at 25° C. for 4-18 h before collecting data on the Analyst from LJL Biosystems (Molecular Devices Sunnyvale, Calif.). […] Dose response curves were fitted using a hyperbolic equation and the data reported is the average of 3 independent experiments.
`CN1C[C@H](O)C[C@H]1CN1C(=O)S/C(=C\c2ccc3c(cnn3Cc3ccc(Cl)cc3C(F)(F)F)c2)C1=O` [Compound 191, (5Z)-5-({1-[4-Chloro-2-(trifluoromethyl)benzyl]-1H-indazol-5-yl}methylidene)-3-{[(2S,4R)-4-hydroxy-1-methylpyrrolidin-2-yl]methyl}-1,3-thiazolidine-2,4-dione]: the negative logarithm of the EC50 (pEC50) was 7.72. `O=C1OCCN1CCN1C(=O)S/C(=C\c2ccc3c(cnn3Cc3ccc(Cl)cc3C(F)(F)F)c2)C1=O` [Compound 131, (5Z)-5-({1-[4-Chloro-2-(trifluoromethyl)benzyl]-1H-indazol-5-yl}methylidene)-3-[2-(2-oxo-1,3-oxazolidin-3-yl)ethyl]-1,3-thiazolidine-2,4-dione] showed a negative logarithm of the EC50 (pEC50) of 8.30. The value for `Cc1nc(CN2C(=O)S/C(=C\c3ccc4c(cnn4Cc4ccc(Cl)cc4C(F)(F)F)c3)C2=O)n[nH]1` [Compound 86, (5Z)-5-({1-[4-Chloro-2-(trifluoromethyl)benzyl]-1H-indazol-5-yl}methylidene)-3-[(5-methyl-1H-1,2,4-triazol-3-yl)methyl]-1,3-thiazolidine-2,4-dione] was 7.05; that for `O=C1CCNCC1N1C(=O)S/C(=C\c2ccc3c(cnn3Cc3ccc(Cl)cc3C(F)(F)F)c2)C1=O` (centres unmarked) [Compound 343, (5Z)-5-({1-[4-Chloro-2-(trifluoromethyl)benzyl]-1H-indazol-5-yl}methylidene)-3-(4-oxopiperidin-3-yl)-1,3-thiazolidine-2,4-dione] was 7.57. `O=C1S/C(=C\c2ccc3c(cnn3Cc3ccc(Cl)cc3C(F)(F)F)c2)C(=O)N1CCN1CC(F)(F)C1` [Compound 75, (5Z)-5-({1-[4-Chloro-2-(trifluoromethyl)benzyl]-1H-indazol-5-yl}methylidene)-3-[2-(3,3-difluoroazetidin-1-yl)ethyl]-1,3-thiazolidine-2,4-dione] gave a pEC50 of 6.90. Turning to `CC(C)(C)NCCN1C(=O)S/C(=C\c2ccc3c(cnn3Cc3ccc(Cl)cc3C(F)(F)F)c2)C1=O` [Compound 46, (5Z)-3-[2-(tert-Butylamino)ethyl]-5-({1-[4-chloro-2-(trifluoromethyl)benzyl]-1H-indazol-5-yl}methylidene)-1,3-thiazolidine-2,4-dione], the pEC50 is 7.72. `CN(C)C[C@H](O)CN1C(=O)S/C(=C\c2ccc3c(cnn3Cc3ccc(Cl)cc3C(F)(F)F)c2)C1=O` [Compound 293, (5Z)-5-({1-[4-Chloro-2-(trifluoromethyl)benzyl]-1H-indazol-5-yl}methylidene)-3-[(2S)-3-(dimethylamino)-2-hydroxypropyl]-1,3-thiazolidine-2,4-dione]: the pEC50 was 7.46.

In the case of `O=C1S/C(=C\c2ccc3c(cnn3Cc3ccc(Cl)cc3C(F)(F)F)c2)C(=O)N1CCNS(=O)(=O)N1CCCC1` [Compound 399, N-{2-[(5Z)-5-({1-[4-Chloro-2-(trifluoromethyl)benzyl]-1H-indazol-5-yl}methylidene)-2,4-dioxo-1,3-thiazolidin-3-yl]ethyl}pyrrolidine-1-sulfonamide], the pEC50 was 7.10. As for `O=C(O)CN1C(=O)S/C(=C\c2ccc3c(cnn3Cc3ccc(F)cc3C(F)(F)F)c2)C1=O` [Compound 122, [(5Z)-5-({1-[4-Fluoro-2-(trifluoromethyl)benzyl]-1H-indazol-5-yl}methylidene)-2,4-dioxo-1,3-thiazolidin-3-yl]acetic acid], the figure is 6.50; as for `O=C1S/C(=C\c2ccc3c(cnn3Cc3ccc(Cl)cc3C(F)(F)F)c2)C(=O)N1C[C@@H]1COCCN1` [Compound 198, (5Z)-5-({1-[4-Chloro-2-(trifluoromethyl)benzyl]-1H-indazol-5-yl}methylidene)-3-[(3R)-morpholin-3-ylmethyl]-1,3-thiazolidine-2,4-dione], 7.51; as for `COC(=O)CN1C(=O)S/C(=C\c2ccc3c(cnn3[C@@H]3CCc4cc(Cl)ccc43)c2)C1=O` [Compound 177, Methyl [(5Z)-5-({1-[(1R)-5-chloro-2,3-dihydro-1H-inden-1-yl]-1H-indazol-5-yl}methylidene)-2,4-dioxo-1,3-thiazolidin-3-yl]acetate], 5.22. Take `N[C@@H]1CCCC[C@H]1N1C(=O)S/C(=C\c2ccc3c(cnn3Cc3ccc(Cl)cc3C(F)(F)F)c2)C1=O` [Compound 174, (5Z)-3-[(1R,2R)-2-Aminocyclohexyl]-5-({1-[4-chloro-2-(trifluoromethyl)benzyl]-1H-indazol-5-yl}methylidine)-1,3-thiazolidine-2,4-dione]: the negative-log EC50 (pEC50) was 6.82. `O=C1S/C(=C\c2ccc3c(cnn3Cc3ccc(C(F)(F)F)cc3C(F)(F)F)c2)C(=O)N1C[C@@H]1CCCN2CCCC[C@H]12` [Compound 207, (5Z)-5-({1-[2,4-Bis(trifluoromethyl)benzyl]-1H-indazol-5-yl}methylidene)-3-[(1S,9aR)-octahydro-2H-quinolizin-1-ylmethyl]-1,3-thiazolidine-2,4-dione]: the pEC50 is 6.72. In turn, `N[C@H]1CC[C@H](CN2C(=O)S/C(=C\c3ccc4c(cnn4Cc4ccc(Cl)cc4C(F)(F)F)c3)C2=O)CC1` [Compound 284, (5Z)-3-[(trans-4-Aminocyclohexyl)methyl]-5-({1-[4-chloro-2-(trifluoromethyl)benzyl]-1H-indazol-5-yl}methylidene)-1,3-thiazolidine-2,4-dione] had a pEC50 of 6.89. The value for `COc1ccc(Cn2ncc3cc(/C=C4\SC(=O)N(CCN5CCN(C)CC5)C4=O)ccc32)c(C(F)(F)F)c1` [Compound 12, (5Z)-5-[(1-{[4-(Methyloxy)-2-(trifluoromethyl)phenyl]methyl}-1H-indazol-5-yl)methylidene]-3-[2-(4-methylpiperazin-1-yl)ethyl]-1,3-thiazolidine-2,4-dione] was 7.14. `O=C(O)C(Cc1ccccn1)N1C(=O)S/C(=C\c2ccc3c(cnn3Cc3ccc(Cl)cc3C(F)(F)F)c2)C1=O` (centres unmarked) [Compound 216, 2-[(5Z)-5-({1-[4-Chloro-2-(trifluoromethyl)benzyl]-1H-indazol-5-yl}methylidene)-2,4-dioxo-1,3-thiazolidin-3-yl]-3-pyridin-2-ylpropanoic acid] had a negative-log EC50 (pEC50) of 7.48.

The molecule `COc1ccc(Cn2ncc3cc(/C=C4\SC(=O)N(CCN5C[C@@H](C)O[C@@H](C)C5)C4=O)ccc32)c(C(F)(F)F)c1` [Compound 21, (5Z)-3-{2-[cis-2,6-Dimethylmorpholin-4-yl]ethyl}-5-({1-[4-methoxy-2-(trifluoromethyl)benzyl]-1H-indazol-5-yl)methylidene)-1,3-thiazolidine-2,4-dione] gave a pEC50 of 8.05.

`Cc1nn(Cc2ccc(Cl)cc2C(F)(F)F)c2ccc(/C=C3\SC(=O)N(CC(=O)NS(=O)(=O)N(C)C)C3=O)cc12` [Compound 39, 2-[(5Z)-5-({1-[4-Chloro-2-(trifluoromethyl)benzyl]-3-methyl-1H-indazol-5-yl}methylidene)-2,4-dioxo-1,3-thiazolidin-3-yl]-N-(dimethylsulfamoyl)acetamide] had a negative logarithm of the EC50 (pEC50) of 7.37. `N[C@H]1CCC[C@H](CN2C(=O)S/C(=C\c3ccc4c(cnn4Cc4ccc(Cl)cc4C(F)(F)F)c3)C2=O)C1` [Compound 105, (5Z)-3-{[(1S,3S)-3-Aminocyclohexyl]methyl}-5-({1-[4-chloro-2-(trifluoromethyl)benzyl]-1H-indazol-5-yl}methylidene)-1,3-thiazolidine-2,4-dione] had a negative logarithm of the EC50 (pEC50) of 7.17. As for `NC(=O)CN1CCC[C@H]1CN1C(=O)S/C(=C\c2ccc3c(cnn3Cc3ccc(Cl)cc3C(F)(F)F)c2)C1=O` [Compound 297, 2-[(2S)-2-{[(5Z)-5-({1-[4-Chloro-2-(trifluoromethyl)benzyl]-1H-indazol-5-yl}methylidene)-2,4-dioxo-1,3-thiazolidin-3-yl]methyl}pyrrolidin-1-yl]acetamide], the negative logarithm of the EC50 (pEC50) is 7.12. The value for `O=C1S/C(=C\c2ccc3c(cnn3Cc3ccc(F)cc3C(F)(F)F)c2)C(=O)N1[C@@H]1CCNC[C@H]1O` (relative stereo) [Compound 272, (5Z)-5-({1-[4-Fluoro-2-(trifluoromethyl)-benzyl]-1H-indazol-5-yl}methylidene)-3-[trans-3-hydroxypiperidin-4-yl]-1,3-thiazolidine-2,4-dione] was 6.82; that for `N[C@@H](CN1C(=O)S/C(=C\c2ccc3c(cnn3Cc3ccc(Cl)cc3C(F)(F)F)c2)C1=O)C1CCCCC1` [Compound 107, (5Z)-3-[(2R)-2-Amino-2-cyclohexylethyl]-5-({1-[4-chloro-2-(trifluoromethyl)benzyl]-1H-indazol-5-yl}methylidene)-1,3-thiazolidine-2,4-dione] was 6.58; that for `CN1CC[C@@H](N2C(=O)S/C(=C\c3ccc4c(cnn4Cc4ccc(C(F)(F)F)cc4C(F)(F)F)c3)C2=O)[C@H](F)C1` (relative stereo) [Compound 278, (5Z)-5-({1-[2,4-Bis(trifluoromethyl)benzyl]-1H-indazol-5-yl}methylidene)-3-(trans-3-fluoro-1-methylpiperidin-4-yl)-1,3-thiazolidine-2,4-dione] was 7.15.
